According to PMC11842024, “Reversible male contraception by targeted inhibition of serine/threonine kinase 33” (Science (New York, N.Y.), 2024):

Key:
male mice [1] = assay: Computer assisted sperm analysis (CASA) of cauda epididymis sperm; format: in vivo
Text: To further understand the cause of the contraceptive effect of CDD-2807, we analyzed sperm from the cauda epididymis of each mouse using computer assisted sperm analysis (CASA). Although sperm counts were lower in the controls in protocol 1 mice versus CDD-2807–treated mice (fig. S23C), sperm motility (fig. S23D), progressive sperm (fig. S23E), and hyperactivated sperm (fig. S23F) were reduced in the CDD-2807–treated mice. In protocol 2, sperm counts (Fig. 4D), sperm motility (Fig. 4E), progressive sperm (Fig. 4F), and hyperactivated sperm (Fig. 4G) were reduced in the CDD-2807-treated mice versus control mice. […] Thus, low dose (CDD-2807 at 15 mg kg^−1 twice per day for 45 days) or reduced duration (CDD-2807 at 50 mg kg^−1 day^−1 for 7 days) appears to cause a functional defect in motility, whereas high dose (CDD-2807 at 50 mg kg^−1 day^−1 for 63 days) causes both functional and morphologic defects, consistent with the Stk33 knockout and likely a direct role of STK33 in phosphorylation of fibrous sheath proteins A-kinase anchoring protein 3 (AKAP3) and AKAP4 and/or other STK33 targets ([48]).

[2] = Deaths and body weight during treatment; format: in vivo, mice
Protocol: using individual calibration curves established with the corresponding tissue homogenates from untreated mice. The calibration curve was regressed with a weight of 1/x2 with high linearity (r2 […]
Spatial distribution of CDD-2807 in testis. The testis from the mice treated with CDD-2807 were attached to the Leica CM3050 S cryostat (Leica Biosystems, Deer Park, IL) with water and then sectioned at the thickness of 10 μm at −20°C. The sections were attached to electrically conductive glass slides coated with indium tin oxide ([…], 70-100 ohms, Delta Technologies, Loveland, CO). Tissue sections were sprayed with a matrix solution containing 35 mg/mL 2,5-dihydroxybenzoic acid (DHB, Sigma, St. Louis, MO) in 70% aqueous CH3OH with 0.1% trifluoroacetic acid using an HTX TM-Sprayer (HTX Technologies LLC, Carrboro, NC). Sprayer nozzle temperature was set at 70°C, tray temperature at 40°C, nozzle velocity at 1200 mm/min, track spacing at 2 mm, drying time for 10 sec and nitrogen gas pressure at 10 psi. The data were collected on the Bruker TimsTOF MS MALDI-2 instrument with the resolution at 40 µm/pixel (mass range 100−1000 Da under the positive mode) using DHB ion as the on-line calibrant. The data was analyzed, and the images were plotted by SciLs Lab software (Bruker, Billerica, MA). […]
Alanine transaminase (ALT) and aspartate transaminase (AST) assays. […] ALT and AST levels were measured in duplicates using assay kits (StanBio, Boerne, TX) according to the manufacturer's instructions. ALT and AST levels were determined using the rate of NADH oxidation, which was quantified by measuring absorbance at 340 nm using a CLARIOstar plate reader (BMG Labtech in Cary, NC). ALT and AST were tested for significance at multiple collection time points, tests for significance included a test for normality (Shapiro-Wilk test) and following the test for normality were then analyzed using an unpaired t-test with significance determined by an alpha of P = 0.05. […]
Fertility analysis. […] Weights were measured daily prior to drug administration and monitored throughout the entirety of the injection period. […]

male mice [3] = assay: Histological analysis of testis and epididymis; format: in vivo
Text: fig. S24. Histological analysis of testis and epididymis segments (caput & corpus) from control and CDD-2807-treated male mice from protocol 1. Bouin’s fixed, 4 µm-cross sections of the testis (A) and horizontal sections of the epididymis (B) were stained with PAS-hematoxylin.
All 12 stages of spermatogenesis are represented in both control and CDD-2807-treated mice and show normal tissue morphology and acrosome development. Epididymis from the control and CDD-2807-treated mice were similar histologically. Scale bars are 60 µm.
(1 picture or pasted object on this page, not shown here) […]
fig. S25. Histological analysis of testis and epididymis segments (caput & corpus) from control and CDD-2807-treated male mice from protocol 2. Bouin’s fixed, 4 µm-cross sections of the testis (A) and longitudinal sections of the epididymis (B) were stained with PAS-hematoxylin. All 12 stages of spermatogenesis are represented in both control and CDD-2807-treated mice, although it was difficult to find all stages in the CDD-2807-treated mice. Epididymis from the control and CDD-2807-treated mice were very different histologically, control mice had normal sperm cells, while CDD-2807 mice had occasional round spermatids present in the epididymis. Scale bars are 60 µm.

[4] = 50 mg/kg/day for 7 days (Protocol 3)
[5] = protocol 2 at 63 days, vs control

## O=C(c1ccc2[nH]nc(C#Cc3ccccc3-c3ccccc3)c2c1)N1CC2(CCCNC2)C1 [CDD-2807]
Male mice [1]; [4]
  progressive sperm: statistically significant reductions
  sperm counts: did not alter
  sperm hyperactivation: statistically significant reductions
  sperm motility: statistically significant reductions
Male mice [1]; protocol 1, day 45, vs control
  hyperactivated sperm: reduced
  progressive sperm: reduced
  sperm motility: reduced
Male mice [1]; [5]
  hyperactivated sperm: significant decrease
  progressive sperm: significant decrease
  sperm counts: significant decrease
  sperm motility: significant decrease
[2]; [4]
  mouse body weights: 27.05 ± 0.79 g
[2]; protocols 1 and 2
  deaths during the period of treatment: no deaths
  weight changes during the period of treatment: no significant weight changes
Male mice [3]; protocol 1
  histology of testes and epididymis: no detectable defects
Male mice [3]; protocol 2
  histology of epididymis: round spermatids in the epididymis
